# According to ChEMBL document CHEMBL3632539, “Identification of Bidentate Salicylic Acid Inhibitors of PTP1B” (ACS Med Chem Lett, 2015):
# pIC50, pKi: −log10 of the molar value. Activity calls are given as the source filed them. The rule behind the calls is not given here.
# Tests used:
# CHO [1] = test: Inhibition of PTP1B in CHO cells assessed as increase in phosphorylation of transfected human insulin receptor at 50 uM by western blot analysis; format: cell-based; conditions: Cricetulus griseus
# CHO [2] = test: Inhibition of PTP1B in CHO cells assessed as increase in phosphorylation of transfected human insulin receptor by western blot analysis; format: cell-based; conditions: Cricetulus griseus
# CHO [3] = test: Cytotoxicity against CHO cells expressing human insulin receptor at 0.78 to 50 uM after 72 hrs by cell-titer blue assay; format: cell-based, Cricetulus griseus; conditions: chinese hamster
# [4] = biological target: T1, Receptor-type tyrosine-protein phosphatase S (Homo sapiens, UniProt Q13332); test: Inhibition of GST-tagged PTP-sigma (unknown origin) by plate reader analysis using DiFMUP as substrate
# [5] = biological target: Receptor-type tyrosine-protein phosphatase F (Homo sapiens) (UniProt P10586); test: Inhibition of GST-tagged LAR (unknown origin) at 10 uM by plate reader analysis using DiFMUP as substrate
# [6] = biological target: T1, Receptor-type tyrosine-protein phosphatase S; test: Inhibition of GST-tagged PTP-sigma (unknown origin) at 10 uM by plate reader analysis using DiFMUP as substrate
# [7] = biological target: T2, Tyrosine-protein phosphatase non-receptor type 2 (Homo sapiens) (UniProt P17706); test: Inhibition of GST-tagged TCPTP (unknown origin) at 10 uM by plate reader analysis using DiFMUP as substrate
# T2 sequence (whole entry): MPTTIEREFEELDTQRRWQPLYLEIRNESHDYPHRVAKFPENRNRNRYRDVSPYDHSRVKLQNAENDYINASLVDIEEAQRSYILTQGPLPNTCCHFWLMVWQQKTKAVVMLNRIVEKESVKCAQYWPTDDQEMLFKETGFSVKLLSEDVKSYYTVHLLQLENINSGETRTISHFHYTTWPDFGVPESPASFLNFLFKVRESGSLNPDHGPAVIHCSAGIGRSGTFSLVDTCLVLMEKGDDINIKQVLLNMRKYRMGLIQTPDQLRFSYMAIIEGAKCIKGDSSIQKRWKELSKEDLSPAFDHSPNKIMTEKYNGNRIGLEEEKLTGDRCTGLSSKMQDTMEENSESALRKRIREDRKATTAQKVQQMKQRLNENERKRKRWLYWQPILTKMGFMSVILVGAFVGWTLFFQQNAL
# [8] = biological target: T3, Dual specificity protein phosphatase 22 (Homo sapiens) (UniProt Q9NRW4); test: Inhibition of GST-tagged MKPX (unknown origin) at 10 uM by plate reader analysis using DiFMUP as substrate
# T3 sequence (whole entry): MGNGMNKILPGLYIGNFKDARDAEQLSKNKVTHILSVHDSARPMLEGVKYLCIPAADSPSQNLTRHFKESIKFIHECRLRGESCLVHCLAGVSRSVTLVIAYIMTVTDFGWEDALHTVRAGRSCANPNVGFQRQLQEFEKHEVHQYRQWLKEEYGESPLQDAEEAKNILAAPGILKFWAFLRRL
# Homo sapiens [9] = species: Homo sapiens; test: Inhibition of GST-tagged PRL2 A/S mutant (unknown origin) at 10 uM by plate reader analysis using DiFMUP as substrate
# Homo sapiens [10] = species: Homo sapiens; test: Selectivity ratio, ratio of IC50 for PTP sigma (unknown origin) to IC50 for PTP1B (unknown origin)
# [11] = biological target: T4, Receptor-type tyrosine-protein phosphatase C (Homo sapiens) (UniProt P08575); test: Inhibition of GST-tagged CD45 D1D2 domain (unknown origin) at 10 uM by plate reader analysis using DiFMUP as substrate
# T4 sequence (whole entry): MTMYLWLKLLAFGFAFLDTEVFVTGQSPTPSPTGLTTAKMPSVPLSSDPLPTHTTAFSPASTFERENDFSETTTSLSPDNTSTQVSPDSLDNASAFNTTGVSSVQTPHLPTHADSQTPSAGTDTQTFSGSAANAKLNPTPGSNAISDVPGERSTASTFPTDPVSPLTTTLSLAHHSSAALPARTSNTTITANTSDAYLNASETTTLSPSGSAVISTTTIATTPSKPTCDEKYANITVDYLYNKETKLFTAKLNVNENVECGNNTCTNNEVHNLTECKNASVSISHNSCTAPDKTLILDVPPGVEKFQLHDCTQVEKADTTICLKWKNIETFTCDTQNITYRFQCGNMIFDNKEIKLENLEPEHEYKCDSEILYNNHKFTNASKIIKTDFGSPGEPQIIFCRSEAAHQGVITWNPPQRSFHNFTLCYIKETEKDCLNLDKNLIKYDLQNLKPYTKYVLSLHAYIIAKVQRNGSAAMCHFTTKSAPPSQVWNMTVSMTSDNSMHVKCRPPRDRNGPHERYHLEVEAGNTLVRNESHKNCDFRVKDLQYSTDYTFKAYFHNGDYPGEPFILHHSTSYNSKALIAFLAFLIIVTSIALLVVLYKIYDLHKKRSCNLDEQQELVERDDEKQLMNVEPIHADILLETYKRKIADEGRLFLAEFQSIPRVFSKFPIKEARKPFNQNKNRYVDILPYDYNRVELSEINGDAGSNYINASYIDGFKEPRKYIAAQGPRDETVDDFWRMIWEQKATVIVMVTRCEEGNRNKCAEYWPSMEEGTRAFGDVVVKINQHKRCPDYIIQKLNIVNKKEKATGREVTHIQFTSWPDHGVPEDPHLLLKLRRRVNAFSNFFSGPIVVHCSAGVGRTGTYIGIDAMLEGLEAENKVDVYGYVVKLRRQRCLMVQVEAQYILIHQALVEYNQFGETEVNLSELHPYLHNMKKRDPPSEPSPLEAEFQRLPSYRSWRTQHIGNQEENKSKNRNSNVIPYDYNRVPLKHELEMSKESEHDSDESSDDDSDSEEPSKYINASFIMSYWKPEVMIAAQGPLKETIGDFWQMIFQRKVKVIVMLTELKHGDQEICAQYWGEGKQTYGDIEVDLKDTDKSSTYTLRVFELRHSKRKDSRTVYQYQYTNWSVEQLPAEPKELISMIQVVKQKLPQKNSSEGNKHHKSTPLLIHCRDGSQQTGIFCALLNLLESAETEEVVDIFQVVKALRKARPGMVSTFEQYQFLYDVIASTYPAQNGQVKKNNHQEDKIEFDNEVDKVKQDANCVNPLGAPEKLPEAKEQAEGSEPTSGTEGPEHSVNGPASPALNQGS
# [12] = biological target: T5, Tyrosine-protein phosphatase non-receptor type 1 (Homo sapiens, UniProt P18031); test: Inhibition of GST-tagged PTP1B (unknown origin) by plate reader analysis using DiFMUP as substrate
# T5 sequence (P18031 whole entry): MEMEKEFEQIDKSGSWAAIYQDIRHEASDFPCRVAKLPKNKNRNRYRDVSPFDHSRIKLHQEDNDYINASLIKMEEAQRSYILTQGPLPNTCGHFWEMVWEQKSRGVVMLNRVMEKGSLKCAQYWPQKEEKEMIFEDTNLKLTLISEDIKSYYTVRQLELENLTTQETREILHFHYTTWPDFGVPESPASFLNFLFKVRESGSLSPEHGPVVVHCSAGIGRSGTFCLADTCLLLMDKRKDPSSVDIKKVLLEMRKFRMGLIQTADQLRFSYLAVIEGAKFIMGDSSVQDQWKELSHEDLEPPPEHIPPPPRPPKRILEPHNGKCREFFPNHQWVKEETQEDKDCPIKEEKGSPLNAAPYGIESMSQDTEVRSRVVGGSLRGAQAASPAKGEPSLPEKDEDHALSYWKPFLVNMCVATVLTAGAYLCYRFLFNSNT
# [13] = biological target: T6, Tyrosine-protein phosphatase non-receptor type 1 (Homo sapiens) (UniProt P18031); test: Inhibition of GST-tagged PTP1B (unknown origin) at 10 uM by plate reader analysis using DiFMUP as substrate
# T6 sequence (whole entry): T5 sequence (P18031 whole entry)
# [14] = biological target: T5, Tyrosine-protein phosphatase non-receptor type 1; test: Competitive inhibition of GST-tagged PTP1B (unknown origin) by plate reader analysis using DiFMUP as substrate
# Homo sapiens [15] = species: Homo sapiens; test: Selectivity ratio, ratio of IC50 for PTP1B (unknown origin) to IC50 for PTP sigma (unknown origin)
# Papain (Carica papaya) = biological target: T7, Papain (Carica papaya) (UniProt P00784); test: Inhibition of papaya papain by plate reader analysis using Z-Phe-Arg-pNA substrate
# T7 sequence (whole entry): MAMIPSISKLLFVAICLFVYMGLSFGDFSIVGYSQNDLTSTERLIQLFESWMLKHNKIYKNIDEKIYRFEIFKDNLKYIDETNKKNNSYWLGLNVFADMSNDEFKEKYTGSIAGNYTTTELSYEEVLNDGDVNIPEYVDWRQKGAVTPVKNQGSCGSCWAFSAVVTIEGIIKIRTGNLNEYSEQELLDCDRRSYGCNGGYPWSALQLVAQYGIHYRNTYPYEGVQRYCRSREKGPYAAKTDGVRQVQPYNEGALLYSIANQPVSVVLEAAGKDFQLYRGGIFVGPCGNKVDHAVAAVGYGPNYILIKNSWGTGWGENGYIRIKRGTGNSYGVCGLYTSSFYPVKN
# [16] = biological target: Receptor-type tyrosine-protein phosphatase F (Homo sapiens) (UniProt P10586); test: Inhibition of GST-tagged LAR (unknown origin) by plate reader analysis using DiFMUP as substrate
# [17] = biological target: T3, Dual specificity protein phosphatase 22 (Homo sapiens); test: Inhibition of GST-tagged MKPX (unknown origin) by plate reader analysis using DiFMUP as substrate
# Homo sapiens [18] = species: Homo sapiens; test: Inhibition of GST-tagged PRL2 A/S mutant (unknown origin) by plate reader analysis using DiFMUP as substrate
# T1 sequence (Q13332 whole entry): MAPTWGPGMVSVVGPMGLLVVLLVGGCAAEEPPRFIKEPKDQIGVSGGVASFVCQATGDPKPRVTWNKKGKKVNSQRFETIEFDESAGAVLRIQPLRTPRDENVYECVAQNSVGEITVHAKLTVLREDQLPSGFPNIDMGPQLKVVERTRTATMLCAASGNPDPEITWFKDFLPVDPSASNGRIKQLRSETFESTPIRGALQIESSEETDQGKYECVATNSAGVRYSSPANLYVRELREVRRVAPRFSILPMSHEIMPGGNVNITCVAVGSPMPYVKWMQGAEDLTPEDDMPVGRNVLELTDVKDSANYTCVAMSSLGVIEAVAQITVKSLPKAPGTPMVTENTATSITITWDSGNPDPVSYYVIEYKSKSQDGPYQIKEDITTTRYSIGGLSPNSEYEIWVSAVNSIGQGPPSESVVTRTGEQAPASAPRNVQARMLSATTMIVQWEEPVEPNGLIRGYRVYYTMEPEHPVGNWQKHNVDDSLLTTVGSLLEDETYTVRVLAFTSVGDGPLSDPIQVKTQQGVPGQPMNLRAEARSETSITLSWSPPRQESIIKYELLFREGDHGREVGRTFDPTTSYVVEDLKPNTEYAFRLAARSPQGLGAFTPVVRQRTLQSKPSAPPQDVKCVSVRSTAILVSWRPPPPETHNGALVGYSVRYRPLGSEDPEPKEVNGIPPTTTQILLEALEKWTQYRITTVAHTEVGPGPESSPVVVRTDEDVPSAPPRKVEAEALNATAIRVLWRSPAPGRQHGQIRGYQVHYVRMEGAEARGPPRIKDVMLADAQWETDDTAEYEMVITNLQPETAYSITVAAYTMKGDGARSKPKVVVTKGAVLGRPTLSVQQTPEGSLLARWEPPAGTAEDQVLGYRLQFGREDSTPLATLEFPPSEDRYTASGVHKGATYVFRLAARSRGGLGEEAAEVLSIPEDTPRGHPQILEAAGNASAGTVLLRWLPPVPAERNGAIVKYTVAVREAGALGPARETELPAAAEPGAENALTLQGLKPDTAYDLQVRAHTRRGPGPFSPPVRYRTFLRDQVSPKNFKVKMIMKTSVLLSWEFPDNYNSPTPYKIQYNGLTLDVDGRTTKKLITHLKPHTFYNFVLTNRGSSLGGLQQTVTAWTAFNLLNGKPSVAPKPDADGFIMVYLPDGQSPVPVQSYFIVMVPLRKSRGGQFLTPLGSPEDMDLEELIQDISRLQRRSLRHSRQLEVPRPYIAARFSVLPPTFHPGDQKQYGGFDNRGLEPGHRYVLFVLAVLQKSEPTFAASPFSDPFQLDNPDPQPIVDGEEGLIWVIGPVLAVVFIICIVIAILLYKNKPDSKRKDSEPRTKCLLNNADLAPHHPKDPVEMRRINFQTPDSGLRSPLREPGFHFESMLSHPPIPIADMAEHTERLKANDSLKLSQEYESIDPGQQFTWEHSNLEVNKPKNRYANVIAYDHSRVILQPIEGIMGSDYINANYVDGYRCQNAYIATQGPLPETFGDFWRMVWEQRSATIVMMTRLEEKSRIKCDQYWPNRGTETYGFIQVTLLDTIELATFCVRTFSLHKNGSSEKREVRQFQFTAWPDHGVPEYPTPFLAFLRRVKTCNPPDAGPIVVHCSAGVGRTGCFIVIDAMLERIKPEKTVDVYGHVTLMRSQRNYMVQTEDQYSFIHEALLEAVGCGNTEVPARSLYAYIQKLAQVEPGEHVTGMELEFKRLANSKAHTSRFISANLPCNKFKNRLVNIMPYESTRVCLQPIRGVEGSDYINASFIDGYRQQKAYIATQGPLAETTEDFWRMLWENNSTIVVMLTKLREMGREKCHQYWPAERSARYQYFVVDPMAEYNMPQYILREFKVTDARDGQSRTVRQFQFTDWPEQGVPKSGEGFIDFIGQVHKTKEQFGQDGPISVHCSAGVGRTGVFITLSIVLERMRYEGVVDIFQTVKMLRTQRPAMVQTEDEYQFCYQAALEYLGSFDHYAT
# Sequence of Receptor-type tyrosine-protein phosphatase F (Homo sapiens) (P10586 whole entry): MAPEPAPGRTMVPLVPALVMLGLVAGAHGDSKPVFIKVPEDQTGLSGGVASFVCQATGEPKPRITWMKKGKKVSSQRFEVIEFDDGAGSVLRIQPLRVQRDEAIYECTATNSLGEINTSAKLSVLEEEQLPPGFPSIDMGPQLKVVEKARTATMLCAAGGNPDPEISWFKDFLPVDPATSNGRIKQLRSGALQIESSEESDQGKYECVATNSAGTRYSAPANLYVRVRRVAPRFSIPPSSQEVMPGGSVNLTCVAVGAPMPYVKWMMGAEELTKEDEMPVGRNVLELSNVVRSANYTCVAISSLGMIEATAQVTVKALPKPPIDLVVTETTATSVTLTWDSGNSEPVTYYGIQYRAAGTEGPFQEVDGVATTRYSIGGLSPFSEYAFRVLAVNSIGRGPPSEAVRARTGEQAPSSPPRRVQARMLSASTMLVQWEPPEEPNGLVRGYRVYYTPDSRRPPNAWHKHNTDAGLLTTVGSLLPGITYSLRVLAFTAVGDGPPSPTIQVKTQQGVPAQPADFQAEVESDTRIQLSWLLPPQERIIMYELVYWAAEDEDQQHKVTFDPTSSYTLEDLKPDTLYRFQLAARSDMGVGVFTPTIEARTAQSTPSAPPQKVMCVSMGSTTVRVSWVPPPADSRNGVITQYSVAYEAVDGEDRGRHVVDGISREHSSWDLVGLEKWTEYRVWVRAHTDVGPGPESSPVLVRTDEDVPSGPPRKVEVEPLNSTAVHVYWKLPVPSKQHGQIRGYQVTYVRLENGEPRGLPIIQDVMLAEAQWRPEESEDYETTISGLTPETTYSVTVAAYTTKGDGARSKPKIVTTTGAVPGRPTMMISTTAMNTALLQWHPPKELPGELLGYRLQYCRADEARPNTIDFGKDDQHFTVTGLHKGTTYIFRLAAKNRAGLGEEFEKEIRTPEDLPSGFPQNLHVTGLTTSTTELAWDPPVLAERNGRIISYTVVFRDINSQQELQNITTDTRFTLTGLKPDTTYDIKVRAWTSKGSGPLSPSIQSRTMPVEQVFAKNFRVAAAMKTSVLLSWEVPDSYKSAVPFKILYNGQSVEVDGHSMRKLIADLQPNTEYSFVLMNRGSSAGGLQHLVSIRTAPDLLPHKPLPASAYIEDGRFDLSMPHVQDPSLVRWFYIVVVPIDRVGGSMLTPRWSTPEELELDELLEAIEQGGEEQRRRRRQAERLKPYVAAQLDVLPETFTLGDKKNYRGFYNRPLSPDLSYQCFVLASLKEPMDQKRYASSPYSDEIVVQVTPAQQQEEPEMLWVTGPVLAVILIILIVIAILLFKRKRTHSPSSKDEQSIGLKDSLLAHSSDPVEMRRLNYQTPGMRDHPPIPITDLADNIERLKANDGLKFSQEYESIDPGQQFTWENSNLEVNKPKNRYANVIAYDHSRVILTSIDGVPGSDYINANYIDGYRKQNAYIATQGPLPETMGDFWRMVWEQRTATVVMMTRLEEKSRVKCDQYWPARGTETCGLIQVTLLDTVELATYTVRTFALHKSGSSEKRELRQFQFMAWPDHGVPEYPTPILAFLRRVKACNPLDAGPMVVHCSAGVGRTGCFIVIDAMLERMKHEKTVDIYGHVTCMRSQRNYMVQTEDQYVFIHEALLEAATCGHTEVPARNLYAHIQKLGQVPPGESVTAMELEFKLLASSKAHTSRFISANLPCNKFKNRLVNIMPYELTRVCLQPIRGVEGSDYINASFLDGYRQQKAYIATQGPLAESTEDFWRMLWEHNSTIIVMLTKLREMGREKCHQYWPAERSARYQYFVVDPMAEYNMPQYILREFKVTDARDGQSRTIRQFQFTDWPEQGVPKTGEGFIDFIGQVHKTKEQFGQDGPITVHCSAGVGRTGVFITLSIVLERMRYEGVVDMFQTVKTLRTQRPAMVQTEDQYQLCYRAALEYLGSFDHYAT
Compound,Activity (CHO [1]),Activity (CHO [2]),Activity (CHO [3]),pIC50 [4],inhibition [5],inhibition [6] [%],inhibition [7] [%],inhibition [8],inhibition (Homo sapiens [9]),Ratio IC50 (Homo sapiens [10]),inhibition [11],pIC50 [12],inhibition [13] [%],pKi [14],Ratio IC50 (Homo sapiens [15]),inhibition (Papain (Carica papaya)),inhibition [16],inhibition [17],inhibition (Homo sapiens [18])
VANADATE,Active,,,,,,,,,,,,,,,,,,
O=C(CCCn1cc(CN(CC(=O)N(Cc2ccc(C3CCCCC3)cc2)c2ccc(C(=O)O)c(O)c2)S(=O)(=O)c2cccc3cccnc23)nn1)Nc1ccc(C(=O)O)c(O)c1,,Dose-dependent effect,Non-toxic,5.10,inactive,> 90,> 90,inactive,inactive,4,inactive,5.77,> 90,,,,,,
O=C(Cn1cc(CN(CC(=O)N(Cc2ccc(C3CCCCC3)cc2)c2ccc(C(=O)O)c(O)c2)S(=O)(=O)c2cccc3cccnc23)nn1)Nc1ccc(C(=O)O)c(O)c1,,Dose-dependent effect,Non-toxic,4.81,inactive,> 90,> 90,inactive,inactive,,inactive,5.44,> 90,5.74,,,,,
O=C(CCCCn1cc(CN(CC(=O)N(Cc2ccc(C3CCCCC3)cc2)c2ccc(C(=O)O)c(O)c2)S(=O)(=O)c2cccc3cccnc23)nn1)Nc1ccc(C(=O)O)c(O)c1,,,,6.22,inactive,> 90,> 90,inactive,inactive,,inactive,5.64,> 90,,4,,,,
O=C(CCn1cc(CN(CC(=O)N(Cc2ccc(C3CCCCC3)cc2)c2ccc(C(=O)O)c(O)c2)S(=O)(=O)c2cccc3cccnc23)nn1)Nc1ccc(C(=O)O)c(O)c1,,,,4.93,inactive,> 90,> 90,inactive,inactive,,inactive,5.21,> 90,,,,,,
CN(CC(=O)N(Cc1ccc(C2CCCCC2)cc1)c1ccc(C(=O)O)c(O)c1)S(=O)(=O)c1cccc2cccnc12,,,,,,,,,,,,,,5.25,,inactive,inactive,inactive,inactive
O=C(CCCCCn1cc(CN(CC(=O)N(Cc2ccc(C3CCCCC3)cc2)c2ccc(C(=O)O)c(O)c2)S(=O)(=O)c2cccc3cccnc23)nn1)Nc1ccc(C(=O)O)c(O)c1,,Dose-dependent effect,Non-toxic,6.05,inactive,> 90,> 90,inactive,inactive,,inactive,5.62,> 90,,,,,,
